Legend:
[1] = Pharmacokinetics in AAV8-CYP3A4*12 mice; details: C57BL/6J, mouse, serum, po, 16.5 mg/kg; for CL/F: CLz/F; for Vd/F: Vz/F; for half-life: t1/2z
[2] = Pharmacokinetics in AAV8-CYP3A4*1 mice; details: C57BL/6J, mouse, in vivo, po, 16.5 mg/kg; for CL/F: CLz/F; for Vd/F: Vz/F; for half-life: t1/2z
CYP3A4.1 = CYP3A4.1 (Homo sapiens, UniProt P08684); experiment: Enzyme kinetics of aumolertinib, recombinant CYP3A4.1; format: in vitro ADME; design: made in house; host or cells: Sf21 insect cells (baculovirus); details: CYP3A4.1, text value
Sequence of CYP3A4.1 (P08684 whole entry): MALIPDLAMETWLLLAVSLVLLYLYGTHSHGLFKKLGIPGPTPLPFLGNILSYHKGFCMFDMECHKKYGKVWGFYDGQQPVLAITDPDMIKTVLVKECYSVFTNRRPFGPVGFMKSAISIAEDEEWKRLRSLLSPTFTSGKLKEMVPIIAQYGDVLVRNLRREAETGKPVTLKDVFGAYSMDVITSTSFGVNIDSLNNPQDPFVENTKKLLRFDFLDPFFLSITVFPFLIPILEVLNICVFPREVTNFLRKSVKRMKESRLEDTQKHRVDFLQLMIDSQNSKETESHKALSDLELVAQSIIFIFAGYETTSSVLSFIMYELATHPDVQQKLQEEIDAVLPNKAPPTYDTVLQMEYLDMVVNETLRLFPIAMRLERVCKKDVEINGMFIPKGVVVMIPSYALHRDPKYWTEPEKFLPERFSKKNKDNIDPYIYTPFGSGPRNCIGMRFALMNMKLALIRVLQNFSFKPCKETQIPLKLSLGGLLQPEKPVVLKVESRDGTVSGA
Protocol: Specifically, first the pFastBac-CYPOR-CYP3A4 and CYPb5 plasmids are constructed, then the plasmids are transformed into DH10Bac cells to obtain the bacmid DNA. Subsequently, the bacmid DNA is transfected into Sf21 insect cells to generate high titer recombinant baculoviruses. After infecting the Sf21 cells with the high titer baculovirus, the cell suspension is collected. Finally, the cells are disrupted by sonication, and the microsomes are prepared by ultracentrifugation. To examine the expression of the target proteins and the CYP content, Western blot analysis and carbon monoxide difference spectroscopy were performed, respectively.
The reaction start, termination and sample processing are the same as described above.

[3] = Pharmacokinetics in AAV8-Ctrl mice; details: C57BL/6J, mouse, serum, po, 16.5 mg/kg; for CL/F: CLz/F; for Vd/F: Vz/F; for half-life: t1/2z
[4] = Pharmacokinetics of aumolertinib and HAS-719 in SD rats; details: for AUC(0-t) / AUC(0-inf) / CL/F / Cmax / Tmax / Vd/F / half-life: Sprague-Dawley, rat, plasma, po, 11 mg/kg; for CL/F: CLz/F; for Vd/F: Vz/F; for half-life: t1/2z
[5] = aumolertinib 16.5 mg/kg oral alone (Aum)
[6] = carvedilol 7.5 mg/kg 0.5 h before aumolertinib 16.5 mg/kg oral (Car+Aum)
[7] = telmisartan 12 mg/kg 0.5 h before aumolertinib 16.5 mg/kg oral (Tel+Aum)
[8] = aumolertinib 11 mg/kg oral alone (Aum)
[9] = carvedilol 5 mg/kg oral 0.5 h before aumolertinib 11 mg/kg oral (Car + Aum)
[10] = telmisartan 8 mg/kg oral 0.5 h before aumolertinib 11 mg/kg oral (Tel + Aum)

C=CC(=O)Nc1cc(Nc2nccc(-c3cn(C4CC4)c4ccccc34)n2)c(OC)cc1N(C)CCN(C)C [Aumolertinib]
AUC(0-t) [1, 5]: 3300 ng·h/mL | AUC(0-t) [1, 6]: 2480 ng·h/mL | AUC(0-t) [1, 7]: 4460 ng·h/mL | AUC(0-inf) [1, 5]: 3460 ng·h/mL | AUC(0-inf) [1, 6]: 2510 ng·h/mL | AUC(0-inf) [1, 7]: 8020 ng·h/mL | CL/F [1, 5]: 87.2 mL/min/kg | CL/F [1, 6]: 124 mL/min/kg | CL/F [1, 7]: 51.3 mL/min/kg | Cmax [1, 5]: 194 ± 48.8 ng/mL | Cmax [1, 6]: 143 ± 102 ng/mL | Cmax [1, 7]: 186 ± 74.4 ng/mL | Tmax [1, 5]: 5.14 ± 8.32 h | Tmax [1, 6]: 8 ± 7.57 h | Tmax [1, 7]: 9.43 ± 10.2 h | Vd/F [1, 5]: 83.2 ± 30.5 L/kg | Vd/F [1, 6]: 70.4 ± 38.6 L/kg | Vd/F [1, 7]: 90.3 ± 85 L/kg | half-life [1, 5]: 11.9 ± 5.16 h | half-life [1, 6]: 6.44 ± 2.34 h | half-life [1, 7]: 29.1 ± 28.9 h | AUC(0-t) [2, 5]: 1370 ng·h/mL | AUC(0-t) [2, 6]: 1730 ng·h/mL | AUC(0-t) [2, 7]: 2890 ng·h/mL | AUC(0-inf) [2, 5]: 1390 ng·h/mL | AUC(0-inf) [2, 6]: 1970 ng·h/mL | AUC(0-inf) [2, 7]: 3710 ng·h/mL | CL/F [2, 5]: 221 mL/min/kg | CL/F [2, 6]: 145 mL/min/kg | CL/F [2, 7]: 110 mL/min/kg | Cmax [2, 5]: 95.4 ± 26.4 ng/mL | Cmax [2, 6]: 96.5 ± 39 ng/mL | Cmax [2, 7]: 154 ± 62.7 ng/mL | Tmax [2, 5]: 1.64 ± 1.18 h | Tmax [2, 6]: 11.6 ± 11.7 h | Tmax [2, 7]: 16.3 ± 14.1 h | Vd/F [2, 5]: 165 ± 125 L/kg | Vd/F [2, 6]: 105 ± 73.6 L/kg | Vd/F [2, 7]: 49.9 ± 33.6 L/kg | half-life [2, 5]: 7.89 ± 2.76 h | half-life [2, 6]: 9.63 ± 8.92 h | half-life [2, 7]: 5.75 ± 3.22 h | Clint (CYP3A4.1): 0.58 μL/min/pmol CYP | Km (CYP3A4.1; human, recombinant CYP3A4.1 cell microsomes (Sf21 insect cells)): 3.2 µM | AUC(0-t) [3, 5]: 1800 ng·h/mL | AUC(0-t) [3, 6]: 1970 ng·h/mL | AUC(0-t) [3, 7]: 3230 ng·h/mL | AUC(0-inf) [3, 5]: 1850 ng·h/mL | AUC(0-inf) [3, 6]: 1980 ng·h/mL | AUC(0-inf) [3, 7]: 3810 ng·h/mL | CL/F [3, 5]: 148 mL/min/kg | CL/F [3, 6]: 145 mL/min/kg | CL/F [3, 7]: 83 mL/min/kg | Cmax [3, 5]: 177 ± 59.9 ng/mL | Cmax [3, 6]: 99.8 ± 27.5 ng/mL | Cmax [3, 7]: 163 ± 65.6 ng/mL | Tmax [3, 5]: 1.29 ± 0.49 h | Tmax [3, 6]: 17.7 ± 10.7 h | Tmax [3, 7]: 2.43 ± 1.13 h | Vd/F [3, 5]: 98.8 ± 56.3 L/kg | Vd/F [3, 6]: 38.6 ± 23.7 L/kg | Vd/F [3, 7]: 68.2 ± 44.6 L/kg | half-life [3, 5]: 8.21 ± 5.1 h | half-life [3, 6]: 3.12 ± 1.79 h | half-life [3, 7]: 9.43 ± 4.77 h | AUC(0-t) [4, 8]: 65.9 ± 27.6 ng·h/mL | AUC(0-t) [4, 9]: 198 ± 121 ng·h/mL | AUC(0-t) [4, 10]: 153 ± 175 ng·h/mL | AUC(0-inf) [4, 8]: 65.9 ± 27.6 ng·h/mL | AUC(0-inf) [4, 9]: 203 ± 133 ng·h/mL | AUC(0-inf) [4, 10]: 153 ± 175 ng·h/mL | CL/F [4, 8]: 3090 mL/min/kg | CL/F [4, 9]: 1150 mL/min/kg | CL/F [4, 10]: 2060 mL/min/kg | Cmax [4, 8]: 9.48 ± 3.93 ng/mL | Cmax [4, 9]: 21.8 ± 8 ng/mL | Cmax [4, 10]: 8.73 ± 7.55 ng/mL | Tmax [4, 8]: 5.17 ± 1.33 h | Tmax [4, 9]: 7.33 ± 2.42 h | Tmax [4, 10]: 8.67 ± 2.73 h | Vd/F [4, 8]: 675 ± 273 L/kg | Vd/F [4, 9]: 375 ± 140 L/kg | Vd/F [4, 10]: 582 ± 299 L/kg | half-life [4, 8]: 2.62 ± 0.94 h | half-life [4, 9]: 4.44 ± 2.79 h | half-life [4, 10]: 3.21 ± 0.24 h | increase of AUC(0-t) after combination with carvedilol ([4]; carvedilol 5 mg/kg + aumolertinib 11 mg/kg oral vs aumolertinib alone): more than 3 time
